The results in this text go back to patent publication US20110104074A1, “METHODS FOR TARGETED CANCER TREATMENT AND DETECTION” (UNIVERSITY OF LOUISVILLE RESEARCH FOUNDATION, INC., priority 2008, published 2011).

Ends that are not written are not given here.

The subject of assay [1] is A2780 ovarian tumor cells. In words: Uptake of doxorubicin by ovarian tumor cells in vitro (fluorometric). The format is cell-based. Conditions: 5 nM DOX. On the procedure:
To determine the uptake of doxorubicin by ovarian tumor cells in vitro, ovarian tumor cells (A2780) were plated in 6-well plates. After 24 hrs of incubation, the medium was replaced with fresh medium and cells were then treated with PBS, free DOX (DOX concentration=5 nM), DOX-NPs (5 nM DOX), or LHRH-NP-DOXs (5 nM DOX). After 2, 4, and 24 hrs of incubation, cells were rinsed with PBS and scrapped off the plates and centrifuged. The pellets were resuspended in lysis buffer [[…] sucrose, 5 mM TrisHCl, 1 mM MgSO4, 1 mM CaCl2 (pH 7.6)] and homogenized using a polytron homogenizer. A 200:1 dilution of the homogenate from each sample was then transferred in triplicate to 2 ml centrifuge tubes and 100:1 of 10% (v/v) Triton X-100, 200:1 of water, and 1,500:1 of acidified isopropanol (0.75 N HCl) was added. The tubes were vortexed to ensure complete mixing and doxorubicin was extracted overnight at −20° C. The next day, the samples were thawed to room temperature, and then centrifuged at 15,000×g for 20 min. The supernatant was collected. Doxorubicin was measured fluorometrically (EX485 nm/EM590 nm) as described previously (3).

For assay [2], the system named is ovarian epithelial tumor cells lines (A2780, CAOV3, and UCI), and a cisplatin-resistant cell line (A2780/CP70). The experiment in a line: Cell viability (MTT, 96-titer kit) in ovarian tumor cell lines. Conditions: concentrations from 1 to 5 nM; cisplatin-sensitive and cisplatin-resistant cell lines.
The target in another assay is T1, LHRH receptor (Mus musculus, UniProt Q01776).
T1 construct: endogenous in cells; host or cells: LβT2 mouse gonadotrope tumor cell line
T1 sequence (Q01776 1-327): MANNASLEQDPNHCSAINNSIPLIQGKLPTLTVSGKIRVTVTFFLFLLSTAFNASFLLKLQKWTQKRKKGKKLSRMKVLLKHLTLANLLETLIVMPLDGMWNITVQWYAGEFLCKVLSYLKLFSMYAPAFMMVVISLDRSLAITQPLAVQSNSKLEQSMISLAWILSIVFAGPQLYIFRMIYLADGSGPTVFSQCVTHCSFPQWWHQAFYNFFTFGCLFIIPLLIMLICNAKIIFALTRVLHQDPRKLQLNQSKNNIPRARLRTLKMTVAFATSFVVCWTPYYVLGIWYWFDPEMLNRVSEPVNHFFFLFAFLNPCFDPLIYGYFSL
In words: pCRE-luciferase reporter assay in LβT2 cells for binding to cell surface LHRH receptors. The format is cell-based. Conditions: 6 hrs treatment, read-out: binding affinities (IC50 values). On the procedure:
To determine if LHRH, when conjugated to gold particles or FNPs, retained its binding affinity to the luteinizing hormone-releasing hormone receptor and its biological activity, the binding of LHRH, LHRH-NP-DOXs, and LHRH-FNP-DOXs to cell surface LHRH receptors was first examined For this purpose, a mouse gonadotrope tumor cell line (LβT2) was used that expresses high levels of high affinity LHRH receptors (82). The LβT2 cells were plated on 6-well plates. After 24 hrs, the cells were transfected with a reporter gene construct, pCRE-luciferase plasmid, as described previously (82). After 24 hrs of transfection, the medium was replaced with serum free medium, followed by incubation for 4 hrs, and then treatment of the cells with various concentrations of LHRH or LHRH-NP-DOXs for 6 hrs. Cells were then lysed and assayed for luciferase activity using a luciferase assay kit (Promega, Madison, Wis.). Binding of LHRH or LHRH-NP-DOX particles was calculated and compared as described previously (82). Experiments were repeated three times for every new preparation.
Background: A reporter such as luciferase makes a cellular process visible.

For `COc1cccc2c1C(=O)c1c(O)c3c(c(O)c1C2=O)C[C@@](O)(C(=O)CO)C[C@@H]3O[C@H]1C[C@H](N)[C@H](O)[C@H](C)O1` [DOX, doxorubicin, reference compound], in assay [1] (after 24 hrs), the “doxorubicin found in cells compared to LHRH-NP-DOXs” value is listed as “significantly lower”. Besides, the “doxorubicin found in cells” value in assay [1] (within 4 hrs) is reported as “no detectable amount”. Further, the “efficacy on cell death” value in assay [2] was “ineffective”.
As to `CC(C)C[C@H](NC(=O)[C@@H](Cc1c[nH]c2ccccc12)NC(=O)[C@H](Cc1ccc(O)cc1)NC(=O)[C@H](CO)NC(=O)[C@H](Cc1c[nH]c2ccccc12)NC(=O)[C@H](Cc1c[nH]cn1)NC(=O)[C@@H]1CCC(=O)N1)C(=O)N[C@@H](CCCNC(=N)N)C(=O)N1CCC[C@H]1C(=O)NCC(N)=O` [LHRH, p-Glu-His-Trp-Ser-Tyr-D-Trp-Leu-Arg-Gly-NH2, reference compound], on LHRH receptor, the IC50 (in general, the point on the concentration scale where inhibition reaches its midpoint) is 0.1 nM. Besides, the “efficacy on cell death” value in assay [2] was “ineffective”.
On to “LHRH-DOX (QHWSYGLRPG; also: doxorubicin conjugate; UniProt P01148 24-33, looked up)”, for which, in assay [2], the “efficacy on cell death” value is reported as “ineffective”.
